The values below come from patent publication US9611278B2 (Merck Sharp & Dohme Corp., priority 2013, dated 2017).

The subject of test [1] is Spontaneously hypertensive rats (SHR). Briefly: Acute Efficacy in Spontaneously Hypertensive Rats (SHR). The test is classed as in vivo, rat. As to conditions: single oral dose. An excerpt: Spontaneously hypertensive rats (SHR, male, Charles River) were implanted with DSI TA11PA-C40 telemetry device (Data Sciences, Inc., St. Paul, Minn.) under isoflurane or ketamine/metomidine anesthesia. The telemetry unit catheter was inserted into the descending aorta via the femoral artery and the telemetry device was implanted subcutaneously in the left flank area. Animals were allowed to recover from surgery for 14 days before the start of any studies. Blood pressure, heart rate, and activity signals from conscious, freely moving rats were recorded continuously for 30 seconds every 10 min. On the day prior to administration of compound, a single oral dose of vehicle (10% transcutol/20% Cremophor/70% water) was administered to all animals to establish baseline control data. The blood pressure lowering efficacy of compound (PO) or vehicle was evaluated following a single oral gavage. Data were collected as hourly averages, and changes in blood pressure were calculated by subtracting control baseline data on an hourly basis. Animals were maintained on normal diet with a 12 hour light-dark cycle.
Maximum peak decreases of systolic blood pressure (SBP) in SHR at a particular P.O. dose (mpk milligrams per kilogram) for the following representative compounds are provided in Table 9. Category A=SBP in SHRs <15 mmHg; Category B=SBP in SHRs 15-25 mmHg; Category C=SBP in SHRs >25 mmHg

Test [2] deals with T1, sGC α1/β1 heterodimer stably expressed in CHO-K1 cells (CHO-K1/sGC) (Homo sapiens, UniProt Q02108+Q02153).
T1 construct: expressed in transfected cells
T1 sequence (Q02108 1-690): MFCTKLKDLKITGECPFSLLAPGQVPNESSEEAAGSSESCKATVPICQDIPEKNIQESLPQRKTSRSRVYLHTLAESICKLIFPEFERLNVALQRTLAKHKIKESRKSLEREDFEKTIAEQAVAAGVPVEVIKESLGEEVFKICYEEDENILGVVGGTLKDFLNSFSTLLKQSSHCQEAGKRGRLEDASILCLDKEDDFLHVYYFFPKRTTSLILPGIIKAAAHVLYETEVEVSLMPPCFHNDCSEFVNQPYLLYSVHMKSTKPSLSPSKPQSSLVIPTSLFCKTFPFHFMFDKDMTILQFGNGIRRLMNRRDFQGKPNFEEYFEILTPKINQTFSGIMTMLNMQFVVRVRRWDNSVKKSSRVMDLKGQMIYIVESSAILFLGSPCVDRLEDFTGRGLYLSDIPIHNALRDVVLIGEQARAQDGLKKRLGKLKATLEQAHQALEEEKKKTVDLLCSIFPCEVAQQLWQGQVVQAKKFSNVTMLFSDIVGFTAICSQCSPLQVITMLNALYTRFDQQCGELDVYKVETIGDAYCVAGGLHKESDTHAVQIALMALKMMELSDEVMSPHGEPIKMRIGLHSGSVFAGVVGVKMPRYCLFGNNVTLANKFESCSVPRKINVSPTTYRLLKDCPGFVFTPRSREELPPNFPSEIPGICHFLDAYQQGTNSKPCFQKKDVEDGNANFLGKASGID
T1 sequence (Q02153 1-619): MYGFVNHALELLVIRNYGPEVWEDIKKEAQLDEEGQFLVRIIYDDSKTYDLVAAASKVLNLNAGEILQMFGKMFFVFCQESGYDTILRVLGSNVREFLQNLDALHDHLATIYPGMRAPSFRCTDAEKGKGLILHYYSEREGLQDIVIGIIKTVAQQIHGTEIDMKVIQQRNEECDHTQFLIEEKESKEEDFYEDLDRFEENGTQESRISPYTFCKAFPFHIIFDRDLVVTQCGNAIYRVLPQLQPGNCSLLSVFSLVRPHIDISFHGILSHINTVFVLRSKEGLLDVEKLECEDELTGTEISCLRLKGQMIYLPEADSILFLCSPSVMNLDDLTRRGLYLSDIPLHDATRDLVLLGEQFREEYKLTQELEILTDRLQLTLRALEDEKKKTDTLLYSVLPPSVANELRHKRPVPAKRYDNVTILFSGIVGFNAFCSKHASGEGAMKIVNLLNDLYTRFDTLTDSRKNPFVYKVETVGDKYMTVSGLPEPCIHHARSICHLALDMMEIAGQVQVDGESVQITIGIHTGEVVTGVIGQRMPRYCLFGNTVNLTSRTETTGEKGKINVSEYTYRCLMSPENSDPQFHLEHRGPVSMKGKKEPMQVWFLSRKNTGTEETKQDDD
Briefly: Cell-based sGC Functional Assay (CASA Assay). To be noted: for Emax: CHO-K1, activation as percentage of maximum cGMP production of Compound A (set to 100%), read-out: % Act.; for pEC50: inflection point of cGMP generation in CHO-K1/sGC cells, 4P fit, 1 hr at 37° C., read-out: IP. A digest of the protocol:
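CHO-K1 cells stably expressing human sGC α1/β1 were incubated with compound for 1 h at 37 °C in buffer with 0.5 mM IBMX and 2.5% DMSO, with or without 1 μM DETA-NO. Intracellular cGMP was read by HTRF and expressed as percentage of maximal activation by reference activator Compound A. Values came from a 4-parameter fit.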

SMILES strings stand for the structures. pEC50: −log10 of the molar value.

On to `[2H]C([2H])([2H])n1ncc2c(-c3nc(N)c4c(n3)NC(=O)C4(c3nnnn3C)C3CC3)nc(CCC(F)(F)C(F)(F)F)nc21` (stereo not drawn) [Example 25, 4-Amino-5-cyclopropyl-5-(1-methyl-1H-tetrazol-5-yl)-2-(1-(methyl-d3)-6-(3,3,4,4,4-pentafluorobutyl)-1H-pyrazolo[3,4-d]pyrimidin-4-yl)-5,7-dihydro-6H-pyrrolo[2,3-d]pyrimidin-6-one], for which the “Category: maximum peak decrease of systolic blood pressure (SBP) in SHR” value (from here on “Category: maximum peak decrease”) in test [1] (P.O. 3 mpk) is recorded as “C (Category C=SBP in SHRs >25 mmHg)”. For the same compound, in test [2], the Emax was determined as 93% and the pEC50 is 6.00.

With `[2H]C([2H])([2H])n1ncc2c(-c3nc(N)c4c(n3)NC(=O)C4(c3nnc(C4CC4)o3)C3CC3)nc(CCC(F)(F)C(F)(F)F)nc21` (stereo not drawn) [Example 38, 4-Amino-5-cyclopropyl-5-(5-cyclopropyl-1,3,4-oxadiazol-2-yl)-2-(1-(methyl-d3)-6-(3,3,4,4,4-pentafluorobutyl)-1H-pyrazolo[3,4-d]pyrimidin-4-yl)-5,7-dihydro-6H-pyrrolo[2,3-d]pyrimidin-6-one], the “Category: maximum peak decrease” value in test [1] (P.O. 1 mpk) is “C (Category C=SBP in SHRs >25 mmHg)”. In addition, in test [2], the Emax was found to be 165% and the pEC50 was 6.58.

With `Cn1ncc2c(-c3nc(N)c4c(n3)NC(=O)C4(c3nnc(C4CC4)o3)C3CC3)nc(CCC(F)(F)C(F)(F)F)nc21` (stereo not drawn) [Example 44, 4-Amino-5-cyclopropyl-5-(5-cyclopropyl-1,3,4-oxadiazol-2-yl)-2-(1-methyl-6-(3,3,4,4,4-pentafluorobutyl)-1H-pyrazolo[3,4-d]pyrimidin-4-yl)-5,7-dihydro-6H-pyrrolo[2,3-d]pyrimidin-6-one], the “Category: maximum peak decrease” value in test [1] (P.O. 1 mpk) is listed as “B (Category B=SBP in SHRs 15-25 mmHg)”. In test [2], the Emax worked out at 113% and the pEC50 is 6.65.

For `[2H]C([2H])([2H])n1ncc2c(-c3nc(N)c4c(n3)NC(=O)C4(C)c3cn(CC4CC4)nn3)nc(CCC(F)(F)C(F)(F)F)nc21` (stereo not drawn) [Example 63, 4-Amino-5-(1-(cyclopropylmethyl)-1H-1,2,3-triazol-4-yl)-5-methyl-2-(1-(methyl-d3)-6-(3,3,4,4,4-pentafluorobutyl)-1H-pyrazolo[3,4-d]pyrimidin-4-yl)-5,7-dihydro-6H-pyrrolo[2,3-d]pyrimidin-6-one], the “Category: maximum peak decrease” value in test [1] (P.O. 1 mpk) was “A (Category A=SBP in SHRs <15 mmHg)”. Moreover, in test [2], the Emax turned out to be 93% and the pEC50 was 6.63.

`[2H]C([2H])([2H])n1ncc2c(-c3nc(N)c4c(n3)NC(=O)C4(C)c3cn(C(C)C)nn3)nc(CCC(F)(F)C(F)(F)F)nc21` (stereo not drawn) [Example 67, 4-Amino-5-(1-isopropyl-1H-1,2,3-triazol-4-yl)-5-methyl-2-(1-(methyl-d3)-6-(3,3,4,4,4-pentafluorobutyl)-1H-pyrazolo[3,4-d]pyrimidin-4-yl)-5,7-dihydro-6H-pyrrolo[2,3-d]pyrimidin-6-one]: the “Category: maximum peak decrease” value in test [1] (P.O. 0.3 mpk) is “B (Category B=SBP in SHRs 15-25 mmHg)”. Besides, the “% Act.” value in test [2] (activation as percentage of maximum cGMP production of Compound A (set to 100%)) was 128%. In addition, the pEC50 in test [2] was 6.92.

Consider `CC(C)n1cc(C2(C)C(=O)Nc3nc(-c4nc(CCCC(F)(F)F)nc5c4cnn5C)nc(N)c32)nn1` (stereo not drawn) [Example 78, 4-Amino-5-(1-isopropyl-1H-1,2,3-triazol-4-yl)-5-methyl-2-(1-methyl-6-(4,4,4-trifluorobutyl)-1H-pyrazolo[3,4-d]pyrimidin-4-yl)-5,7-dihydro-6H-pyrrolo[2,3-d]pyrimidin-6-one], for which the “Category: maximum peak decrease” value in test [1] (P.O. 1 mpk) was “C (Category C=SBP in SHRs >25 mmHg)”. In test [2], the Emax turned out to be 103% and the pEC50 was 6.43.

For the compound `Cn1ccc2c(-c3nc(N)c4c(n3)NC(=O)C4(C)c3nnc(C4CC4)o3)nc(CCC(F)(F)C(F)(F)F)nc21` (stereo not drawn) [Example 86, 4-Amino-5-(5-cyclopropyl-1,3,4-oxadiazol-2-yl)-5,7′-dimethyl-2′-(3,3,4,4,4-pentafluorobutyl)-5,7-dihydro-6H,7′H-[2,4′-bipyrrolo[2,3-d]pyrimidin]-6-one], the “Category: maximum peak decrease” value in test [1] (P.O. 1 mpk) is “B (Category B=SBP in SHRs 15-25 mmHg)”. Moreover, in test [2], the Emax stood at 104% and the pEC50 was 6.39.
